Measured values taken from patent US5576334A, “Acylurea derivatives” (Zeneca Limited, priority 1993, dated 1996).

Columns and labels:
[1] = tested on: aggregation of human blood platelets; assay: test (a) modified, ex vivo after oral dosing to dogs; format: in vivo; conditions: 1 mg/kg
Experimental: Test (a) may be modified so as to assess the effects of a test compound ex vivo on the aggregation of human blood platelets after administration of the test compound to a laboratory animal, such as a rat, rabbit, guinea pig, mouse or dog. For example, groups of four male, fasted Alderley Park Wistar rats are orally dosed with a test compound or appropriate vehicle, and at suitable time intervals (1, 3, 5 and 8 hours after dosing) animals are anaesthetised with fluothane and bled by heart puncture. Blood is collected into 3.2% citrate (1 part to 9 parts whole blood) and platelet poor plasma (ppp) prepared by centrifugation (4500×g for 10 minutes). […]
Equal volumes (125 μl) of rat ppp and human prp are mixed together, ADP added, and the whole incubated (37° C.) and stirred (900 rpm) in a BioData platelet aggregometer. Aggregation is induced with ADP and agonist EC50 values calculated for human prp/rat ppp mixtures from animals dosed with test compound or vehicle. A mean concentration ratio (concentration of ADP required to cause a 50% aggregation response in human prp/rat ppp mixtures from animals dosed with antagonist, divided by the concentration of ADP to cause 50% aggregation in human prp/rat ppp mixtures from animals dosed with vehicle) is calculated at each time point.

[2] = molecular target: T1, purified human platelet fibrinogen receptor (GPIIb/IIIa) (Homo sapiens, UniProt P05106+P08514); assay: test (b): GPIIb/IIIa ELISA, inhibition of biotinylated fibrinogen binding; conditions: biotinylated fibrinogen 10 nM, read-out: pIC50 (-log(IC50)), inhibition of biotinylated fibrinogen binding in test (b) (converted)
T1 construct: Glycoprotein IIb/IIIa is isolated from human platelet lysates; from tissue
Experimental: (i) Preparation of human platelet lysates. Platelet rich plasma (PRP) is harvested by centrifugation (1000 rpm, 15 minutes) of whole blood anticoagulated with acid citrate dextrose (trisodium citrate 85 mM, citric acid 70 mM, d-glucose 110 mM) 1 part to 6 parts blood. Prostacyclin (PGI2, 1 μM) is added to the PRP before centrifugation (2400 rpm, 15 mins) and the resulting pellet is resuspended in modified Tyrodes' solution (NACl 130 mM, […], NaHCO3 12 mM, NaH2 PO4 0.5 mM, MgCl2 1 mM, […], Glucose 12 mM, HEPES 5 mM) containing bovine serum albumin 3.5 g/L, PGI2 1 μM and hirudin 0.5 U/ml. The platelet suspension is centrifuged (2400 rpm, 15 minutes) and the resultant pellet resuspended in 500 μl of lysis buffer (octyl glucoside 50 mM, HEPES 10 mM, NaCl 150 mM, CaCl2 1 mM, MgCl2 1 mM, PMSF 1 mM, NEM 10 mM, leupeptin 0.1 mM), agitated at 4° C. for 15 minutes then centrifuged at 24000 rpm, 15 minutes. The supernatant is stored at 4° C. and the pellet re-suspended in 500 μl of lysis buffer. […]
(iii) GPIIb/IIIa ELISA 96 well microtitre plates are coated with 100 μl purified human platelet fibrinogen receptor (GPIIb/IIIa) diluted in coating buffer (Tris-HCl 20 mM, NaCl 150 mM, CaCl2 1 mM, pH7.4) and left overnight at 4° C. […] Colour is allowed to develop for 10-15 minutes before optical densities are read at 650 nm. […]

[3] = tested on: ADP stimulated platelet aggregation in human, citrated, platelet-rich plasma; assay: test (a): inhibition of ADP-induced aggregation of human platelet-rich plasma (Born); format: cell-based; conditions: ADP as agonist
Text: (i) aggregating human, citrated, platelet-rich plasma by addition of adenosine diphosphate (ADP) so as to generate a dose-response curve;
(ii) generating a dose-response curve for ADP stimulated platelet aggregation in the presence of increasing amounts of a test compound (generally in the range 10^-5 M to 10^-10 M); and
(iii) calculating a pA2 value indicating potency of platelet aggregation inhibition for the test compound, averaged over several concentrations, from the calculated 50% response value for ADP aggregation in the presence and absence of the test compound.

T1 sequence (P08514 32-887 limits assumed): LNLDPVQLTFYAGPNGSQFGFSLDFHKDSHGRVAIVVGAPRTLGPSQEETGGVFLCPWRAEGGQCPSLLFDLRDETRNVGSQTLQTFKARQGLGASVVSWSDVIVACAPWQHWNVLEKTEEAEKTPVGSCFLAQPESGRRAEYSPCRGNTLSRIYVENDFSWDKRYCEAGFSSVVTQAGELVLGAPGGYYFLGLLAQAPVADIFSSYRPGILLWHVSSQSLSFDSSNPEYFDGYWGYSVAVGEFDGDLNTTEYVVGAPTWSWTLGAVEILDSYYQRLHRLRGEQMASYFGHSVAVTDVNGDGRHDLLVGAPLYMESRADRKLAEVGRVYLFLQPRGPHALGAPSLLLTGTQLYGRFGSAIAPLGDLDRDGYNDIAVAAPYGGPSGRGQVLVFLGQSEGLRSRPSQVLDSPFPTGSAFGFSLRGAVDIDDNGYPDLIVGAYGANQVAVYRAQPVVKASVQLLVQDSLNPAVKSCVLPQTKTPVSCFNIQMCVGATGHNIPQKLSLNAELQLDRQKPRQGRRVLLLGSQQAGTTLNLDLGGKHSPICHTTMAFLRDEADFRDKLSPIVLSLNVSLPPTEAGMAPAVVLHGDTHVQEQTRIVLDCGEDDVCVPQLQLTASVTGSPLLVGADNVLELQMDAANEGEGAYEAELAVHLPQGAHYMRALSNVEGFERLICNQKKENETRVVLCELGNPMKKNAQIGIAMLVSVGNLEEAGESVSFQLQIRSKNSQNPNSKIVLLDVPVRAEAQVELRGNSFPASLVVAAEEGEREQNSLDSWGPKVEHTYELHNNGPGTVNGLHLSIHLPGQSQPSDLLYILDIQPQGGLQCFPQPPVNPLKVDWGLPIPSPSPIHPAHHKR
T1 sequence (P08514 891-1039 limits assumed): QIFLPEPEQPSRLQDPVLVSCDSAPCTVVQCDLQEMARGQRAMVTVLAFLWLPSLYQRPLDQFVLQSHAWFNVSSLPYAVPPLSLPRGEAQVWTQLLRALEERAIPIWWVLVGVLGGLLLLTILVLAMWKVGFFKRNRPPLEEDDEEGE
T1 sequence (P05106 27-788): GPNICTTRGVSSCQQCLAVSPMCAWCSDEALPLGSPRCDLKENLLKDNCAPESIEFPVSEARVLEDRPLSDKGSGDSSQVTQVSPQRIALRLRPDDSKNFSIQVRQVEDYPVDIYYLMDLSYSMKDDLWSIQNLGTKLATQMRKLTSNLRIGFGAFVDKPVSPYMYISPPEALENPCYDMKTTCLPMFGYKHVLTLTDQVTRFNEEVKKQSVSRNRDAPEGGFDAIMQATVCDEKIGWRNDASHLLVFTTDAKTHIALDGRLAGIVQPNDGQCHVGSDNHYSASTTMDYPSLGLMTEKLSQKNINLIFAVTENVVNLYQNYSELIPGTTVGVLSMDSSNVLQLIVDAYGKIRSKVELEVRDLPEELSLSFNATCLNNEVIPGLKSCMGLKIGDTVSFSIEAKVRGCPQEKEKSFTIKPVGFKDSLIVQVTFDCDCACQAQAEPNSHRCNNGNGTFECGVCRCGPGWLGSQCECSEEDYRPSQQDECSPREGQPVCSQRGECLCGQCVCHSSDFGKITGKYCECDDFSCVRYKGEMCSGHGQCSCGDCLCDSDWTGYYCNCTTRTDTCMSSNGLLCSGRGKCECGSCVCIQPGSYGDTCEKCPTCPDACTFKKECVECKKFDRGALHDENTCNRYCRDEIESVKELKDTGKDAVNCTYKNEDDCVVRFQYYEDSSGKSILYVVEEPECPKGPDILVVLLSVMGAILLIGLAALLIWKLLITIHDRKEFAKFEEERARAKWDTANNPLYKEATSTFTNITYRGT

IC50 [2] [nM]	Compound	duration of activity when dosed orally [1]	pA2, potency of platelet aggregation inhibition in test (a) [3]
	CC(C)(C)OC(=O)COc1ccc(NC(=O)NC(=O)c2ccc(C(=N)N)cc2)cc1 [Example 2, t-Butyl 4-[3-(4-amidinobenzoyl)ureido]phenoxyacetate]	up to 8 hours	
2.51	N=C(N)c1ccc(C(=O)NC(=O)Nc2ccc(OCC(=O)O)cc2)cc1 [Example 3, 4-[3-(4-Amidinobenzoyl)ureido]phenoxyacetic acid]		8.4
316	COC(=O)COc1ccc(NC(=O)NC(=O)c2ccc(C(=N)N)cc2)cc1 [Example 1, Methyl 4-[3-(4-amidinobenzoyl)ureido]phenoxyacetate]		7.6
